Data reported in ChEMBL document CHEMBL4431353, “Optimization of a Series of Bivalent Triazolopyridazine Based Bromodomain and Extraterminal Inhibitors: The Discovery of (3R)-4-[2-[4-[1-(3-Methoxy-[1,2,4]triazolo[4,3-b]pyridazin-6-yl)-4-piperidyl]phenoxy]ethyl]-1,3-dimethyl-piperazin-2-one (AZD5153)” (J Med Chem, 2016).
Converted amounts (≈) assume the structure as drawn.

How the values were obtained:
[1] = Thermodynamic solubility of compound in pH 7.4 solution; type: physicochemical; details: buffer, read-out: Therm_solubility
MV4-11 = assay: Antitumor activity against human MV4-11 cells xenografted in SCID mouse assessed as tumor growth inhibition at 10 mg/kg, po administered daily through oral gavage for 14 days measured twice per week during compound dosing relative to control; type: functional; details: MV4-11, po, 336 h, read-out: TGI
[2] = target: T1, Bromodomain-containing protein 4 (Homo sapiens, UniProt O60885); assay: Inhibition of human BRD4 bromodomain 1 expressed in bacterial expression system
[3] = target: Bromodomain-containing protein 4 (Homo sapiens, UniProt O60885, N433A)
MM1.S = assay: Growth inhibition of human MM1S cells after 72 hrs by alamar blue assay; type: functional
[4] = target: T2, Bromodomain-containing protein 9 (Homo sapiens, UniProt Q9H8M2); assay: Inhibition of human BRD9 expressed in bacterial expression system
T2 sequence (Q9H8M2 whole entry): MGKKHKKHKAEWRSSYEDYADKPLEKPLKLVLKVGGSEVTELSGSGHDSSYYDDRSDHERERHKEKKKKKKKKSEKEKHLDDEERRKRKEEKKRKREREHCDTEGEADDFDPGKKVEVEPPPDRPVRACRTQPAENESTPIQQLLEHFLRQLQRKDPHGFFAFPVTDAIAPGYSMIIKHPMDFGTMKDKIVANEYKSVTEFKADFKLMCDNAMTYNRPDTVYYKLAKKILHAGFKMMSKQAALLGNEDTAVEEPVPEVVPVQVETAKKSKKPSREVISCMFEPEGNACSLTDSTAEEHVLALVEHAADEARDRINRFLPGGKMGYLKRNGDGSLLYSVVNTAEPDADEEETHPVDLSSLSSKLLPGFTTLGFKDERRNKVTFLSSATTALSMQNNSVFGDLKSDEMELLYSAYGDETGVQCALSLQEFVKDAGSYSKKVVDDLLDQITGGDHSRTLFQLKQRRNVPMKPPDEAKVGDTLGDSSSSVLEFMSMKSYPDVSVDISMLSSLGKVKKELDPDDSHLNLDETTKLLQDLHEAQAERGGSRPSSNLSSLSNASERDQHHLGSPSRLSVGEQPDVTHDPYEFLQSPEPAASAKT

[5] = Unbound fraction in human plasma; type: ADME, cell-free
[6] = target: T1, Bromodomain-containing protein 4; assay: Inhibition of human BRD4 bromodomain 2 expressed in bacterial expression system
[7] = target: T3, Bromodomain-containing protein 3 (Homo sapiens, UniProt Q15059); assay: Inhibition of human BRD3 bromodomain 1 expressed in bacterial expression system
[8] = Unbound fraction in dog plasma; type: ADME, cell-free, Canis lupus familiaris
[9] = target: T1, Bromodomain-containing protein 4; assay: Inhibition of BRD4 in human LNCAP cells assessed as down regulation of nuclear AR level by immunofluorescence assay; type: cell-based
[10] = target: T4, Bromodomain testis-specific protein (Homo sapiens, UniProt Q58F21); assay: Inhibition of human BRDT bromodomain 2 expressed in bacterial expression system
[11] = target: T1, Bromodomain-containing protein 4; assay: Inhibition of BRD4 in human MM1S cells assessed as down regulation of c-Myc incubated for 16 hrs by flow cytometry; type: cell-based
[12] = Oral bioavailability in rat; type: ADME, organism-based; details: in vivo
Mus musculus = assay: In vivo inhibition of BRD4 in SCID mouse xenografted with human MV4-11 cells assessed as free plasma concentration required to decrease c-Myc expression in tumor at 10 mg/kg, po administered as single dose measured after 8 hrs by qPCR method; type: functional
[13] = target: Histone acetyltransferase p300 (Homo sapiens, UniProt Q09472); assay: Inhibition of human EP300 expressed in bacterial expression system
CREB-binding protein = CREB-binding protein (Homo sapiens, UniProt Q92793); assay: Inhibition of human CREBBP expressed in bacterial expression system
[14] = target: T1, Bromodomain-containing protein 4; assay: Inhibition of BRD4 in human MCF7 cells assessed as down regulation of ERalpha after 18 to 24 hrs by Hoechst staining based cellomics arrayscan analysis; type: cell-based
[15] = Toxicity in SCID mouse xenografted with human MV4-11 cells assessed as body weight loss at 10 mg/kg, po administered daily through oral gavage for 14 days relative to control; type: organism-based; details: in vivo, 336 h
[16] = Lipophilicity, log D of compound at pH 7.4; type: physicochemical; details: buffer
[17] = target: T5, Bromodomain-containing protein 2 (Homo sapiens, UniProt P25440); assay: Inhibition of human BRD2 bromodomain 2 expressed in bacterial expression system
[18] = target: T5, Bromodomain-containing protein 2; assay: Inhibition of human BRD2 bromodomain 1 expressed in bacterial expression system
[19] = Metabolic stability in hepatic microsomes; type: ADME, Liver, Microsome
[20] = target: T1, Bromodomain-containing protein 4; assay: Displacement of Alexa647-labeled JQ1 derivative from wild type BRD4 tandem domain (44 to 460 residues) (unknown origin) incubated for 1 hr by fluorescence polarization assay
[21] = Plasma clearance in dog; type: ADME, Canis lupus familiaris
[22] = Intrinsic clearance in human hepatocytes assessed per million cells; type: ADME, cell-based, Hepatocyte; details: read-out: CLH
[23] = Unbound fraction in rat plasma; type: ADME, cell-free
[24] = Volume of distribution at steady state in rat; type: ADME; details: in vivo, read-out: Vdss
[25] = Apparent permeability from apical to basolateral side in human Caco2 cells; type: ADME, cell-based; details: Caco-2
[26] = target: T3, Bromodomain-containing protein 3; assay: Inhibition of human BRD3 bromodomain 2 expressed in bacterial expression system
[27] = target: Bromodomain-containing protein 4 (Homo sapiens, UniProt O60885, N140A)
[28] = target: Transcription initiation factor TFIID subunit 1 (Homo sapiens, UniProt P21675); assay: Inhibition of human TAF1 bromodomain 2 expressed in bacterial expression system
[29] = Volume of distribution at steady state in dog; type: ADME, Canis lupus familiaris; details: in vivo, read-out: Vdss
[30] = Intrinsic clearance in dog hepatocytes assessed per million cells; type: ADME, cell-based, Canis lupus familiaris, Hepatocyte; details: read-out: CLH
[31] = Intrinsic clearance in rat hepatocytes assessed per million cells; type: ADME, cell-based, Hepatocyte; details: read-out: CLH
[32] = Plasma clearance in rat; type: ADME
[33] = Oral bioavailability in dog; type: ADME, organism-based, Canis lupus familiaris; details: in vivo
[34] = target: Transcription initiation factor TFIID subunit 1-like (Homo sapiens, UniProt Q8IZX4); assay: Inhibition of human TAF1L bromodomain 2 expressed in bacterial expression system
[35] = target: T4, Bromodomain testis-specific protein; assay: Inhibition of human BRDT bromodomain 1 expressed in bacterial expression system

T3 sequence (Q15059 whole entry): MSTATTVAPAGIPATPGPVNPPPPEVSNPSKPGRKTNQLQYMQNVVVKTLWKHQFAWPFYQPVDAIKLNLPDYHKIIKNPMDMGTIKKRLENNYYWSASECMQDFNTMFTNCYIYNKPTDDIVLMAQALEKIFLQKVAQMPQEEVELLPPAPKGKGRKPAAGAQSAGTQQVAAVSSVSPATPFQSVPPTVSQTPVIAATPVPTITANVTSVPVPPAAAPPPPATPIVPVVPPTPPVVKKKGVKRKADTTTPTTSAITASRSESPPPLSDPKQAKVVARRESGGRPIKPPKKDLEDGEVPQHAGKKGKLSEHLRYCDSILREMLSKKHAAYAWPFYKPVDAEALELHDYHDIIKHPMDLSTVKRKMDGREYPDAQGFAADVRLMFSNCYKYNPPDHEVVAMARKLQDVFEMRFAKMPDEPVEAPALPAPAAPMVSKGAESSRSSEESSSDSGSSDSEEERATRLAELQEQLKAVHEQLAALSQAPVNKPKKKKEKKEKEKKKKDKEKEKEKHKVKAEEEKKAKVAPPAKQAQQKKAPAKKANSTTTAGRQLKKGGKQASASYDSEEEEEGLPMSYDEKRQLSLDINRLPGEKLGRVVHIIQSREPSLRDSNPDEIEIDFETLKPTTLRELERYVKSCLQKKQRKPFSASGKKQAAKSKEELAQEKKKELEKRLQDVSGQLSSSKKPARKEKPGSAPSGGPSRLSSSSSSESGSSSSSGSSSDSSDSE
T5 sequence (P25440 whole entry): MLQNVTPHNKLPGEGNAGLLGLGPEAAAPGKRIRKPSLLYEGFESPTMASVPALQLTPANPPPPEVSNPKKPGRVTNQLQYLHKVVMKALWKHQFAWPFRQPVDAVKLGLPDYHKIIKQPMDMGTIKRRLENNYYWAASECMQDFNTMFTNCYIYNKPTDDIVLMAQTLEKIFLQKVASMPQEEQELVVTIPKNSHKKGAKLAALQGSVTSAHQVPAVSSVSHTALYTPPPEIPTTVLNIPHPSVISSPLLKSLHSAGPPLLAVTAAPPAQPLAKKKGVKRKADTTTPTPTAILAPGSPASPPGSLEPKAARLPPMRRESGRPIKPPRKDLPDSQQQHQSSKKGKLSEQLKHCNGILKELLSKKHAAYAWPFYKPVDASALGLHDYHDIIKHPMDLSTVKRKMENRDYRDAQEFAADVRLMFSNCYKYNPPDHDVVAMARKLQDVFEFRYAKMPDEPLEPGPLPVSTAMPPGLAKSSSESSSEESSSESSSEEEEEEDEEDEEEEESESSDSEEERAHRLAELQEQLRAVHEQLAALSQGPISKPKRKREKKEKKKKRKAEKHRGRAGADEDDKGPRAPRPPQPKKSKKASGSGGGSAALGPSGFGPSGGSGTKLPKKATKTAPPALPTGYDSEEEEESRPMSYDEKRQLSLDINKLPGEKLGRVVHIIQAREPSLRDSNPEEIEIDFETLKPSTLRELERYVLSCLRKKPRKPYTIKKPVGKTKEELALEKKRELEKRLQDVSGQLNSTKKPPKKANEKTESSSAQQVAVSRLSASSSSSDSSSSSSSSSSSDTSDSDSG
Sequence of Histone acetyltransferase p300 (Q09472 whole entry): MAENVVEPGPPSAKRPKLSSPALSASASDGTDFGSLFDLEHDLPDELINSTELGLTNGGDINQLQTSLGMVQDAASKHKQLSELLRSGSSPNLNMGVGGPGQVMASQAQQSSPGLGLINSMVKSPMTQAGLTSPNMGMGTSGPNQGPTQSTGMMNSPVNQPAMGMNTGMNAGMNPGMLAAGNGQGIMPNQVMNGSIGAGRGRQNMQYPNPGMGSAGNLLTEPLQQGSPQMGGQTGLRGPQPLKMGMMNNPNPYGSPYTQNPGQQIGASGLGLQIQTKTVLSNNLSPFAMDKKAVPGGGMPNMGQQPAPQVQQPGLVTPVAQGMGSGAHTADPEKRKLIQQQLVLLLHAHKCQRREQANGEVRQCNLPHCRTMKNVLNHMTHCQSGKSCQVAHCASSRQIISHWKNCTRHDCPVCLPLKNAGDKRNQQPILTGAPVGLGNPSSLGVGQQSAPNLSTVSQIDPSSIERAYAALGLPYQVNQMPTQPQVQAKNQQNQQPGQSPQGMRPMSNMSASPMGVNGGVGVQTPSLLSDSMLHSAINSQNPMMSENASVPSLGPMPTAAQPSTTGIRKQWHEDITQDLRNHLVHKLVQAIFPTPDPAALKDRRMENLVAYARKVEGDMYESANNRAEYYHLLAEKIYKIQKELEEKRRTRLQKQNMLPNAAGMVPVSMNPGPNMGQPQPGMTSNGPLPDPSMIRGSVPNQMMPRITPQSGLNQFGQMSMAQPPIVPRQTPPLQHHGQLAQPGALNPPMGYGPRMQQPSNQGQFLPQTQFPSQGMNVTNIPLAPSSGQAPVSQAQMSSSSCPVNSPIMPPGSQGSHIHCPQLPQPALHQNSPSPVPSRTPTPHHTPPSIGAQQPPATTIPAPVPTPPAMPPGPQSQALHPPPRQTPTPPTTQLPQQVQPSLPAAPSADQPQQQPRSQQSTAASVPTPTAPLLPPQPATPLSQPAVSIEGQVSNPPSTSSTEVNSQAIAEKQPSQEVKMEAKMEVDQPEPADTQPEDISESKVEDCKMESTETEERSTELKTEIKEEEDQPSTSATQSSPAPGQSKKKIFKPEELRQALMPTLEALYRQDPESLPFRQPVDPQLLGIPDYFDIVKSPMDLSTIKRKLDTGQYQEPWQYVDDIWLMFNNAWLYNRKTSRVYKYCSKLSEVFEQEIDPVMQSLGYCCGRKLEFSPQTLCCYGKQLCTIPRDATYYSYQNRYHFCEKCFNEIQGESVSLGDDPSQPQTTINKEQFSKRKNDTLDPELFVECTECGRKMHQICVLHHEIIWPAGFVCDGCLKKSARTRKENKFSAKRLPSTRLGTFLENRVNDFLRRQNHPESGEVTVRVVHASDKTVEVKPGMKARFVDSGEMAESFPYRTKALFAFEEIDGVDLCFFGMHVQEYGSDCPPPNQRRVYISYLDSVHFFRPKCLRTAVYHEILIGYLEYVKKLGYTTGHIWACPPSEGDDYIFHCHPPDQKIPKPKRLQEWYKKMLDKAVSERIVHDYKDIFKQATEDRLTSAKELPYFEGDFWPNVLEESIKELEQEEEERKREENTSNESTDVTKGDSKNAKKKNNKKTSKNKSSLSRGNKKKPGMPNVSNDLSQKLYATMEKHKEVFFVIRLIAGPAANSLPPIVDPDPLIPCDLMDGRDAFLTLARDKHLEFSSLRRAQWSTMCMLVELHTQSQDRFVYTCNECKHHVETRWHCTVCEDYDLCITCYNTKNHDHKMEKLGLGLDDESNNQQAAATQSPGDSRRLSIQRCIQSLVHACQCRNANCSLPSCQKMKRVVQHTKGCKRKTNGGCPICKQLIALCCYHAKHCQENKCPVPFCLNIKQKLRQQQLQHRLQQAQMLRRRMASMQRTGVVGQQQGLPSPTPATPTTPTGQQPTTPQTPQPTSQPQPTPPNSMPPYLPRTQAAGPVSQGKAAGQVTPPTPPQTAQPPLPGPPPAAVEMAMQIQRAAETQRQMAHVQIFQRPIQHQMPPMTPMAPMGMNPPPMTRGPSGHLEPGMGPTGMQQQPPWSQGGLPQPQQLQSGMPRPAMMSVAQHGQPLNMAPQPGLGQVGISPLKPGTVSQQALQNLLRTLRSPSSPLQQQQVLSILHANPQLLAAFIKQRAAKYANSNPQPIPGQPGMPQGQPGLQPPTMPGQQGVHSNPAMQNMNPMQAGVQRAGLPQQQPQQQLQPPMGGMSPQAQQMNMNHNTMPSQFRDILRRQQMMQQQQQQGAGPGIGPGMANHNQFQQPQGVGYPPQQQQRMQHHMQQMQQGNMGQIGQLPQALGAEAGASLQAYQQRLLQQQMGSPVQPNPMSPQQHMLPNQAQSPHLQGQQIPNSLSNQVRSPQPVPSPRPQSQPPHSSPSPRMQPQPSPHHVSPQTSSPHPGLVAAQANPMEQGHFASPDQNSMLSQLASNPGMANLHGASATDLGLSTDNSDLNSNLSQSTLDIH

solubility thermodynamic [1]: 1600 to 1650 µM (≈ 767 to 791 µg/mL) | Ki [2]: 50.1 nM | Ki [3]: 126 nM | GI50 (MM1.S): 5.01 nM | Ki [4]: 2510 nM | fraction unbound [5]: 0.23 | Ki [6]: 126 nM | Ki [7]: 63.1 nM | fraction unbound [8]: 0.24 | IC50 [9]: 20 nM | Ki [10]: 501 nM | IC50 [11]: 12.6 nM | bioavailability [12]: 81% | Ki [13]: < 10000 nM | Ki (CREB-binding protein): 6310 nM | IC50 [14]: 25.1 nM | logD [16]: 2.3 | Ki [17]: 251 nM | Ki [18]: 100 nM | Stability [19]: Stable | Ki [20]: 5.01 nM | clearance [21]: 6 mL/min/kg | hepatocyte CLint [22]: 3.5 to 4 µL/min/1e6 cells | fraction unbound [23]: 0.04 | Vd [24]: 0.9 L/kg | Papp A→B [25]: 40 ×10⁻⁶ cm/s | Ki [26]: 398 nM | Ki [27]: 158 nM | Ki [28]: 1260 nM | Vd [29]: 0.4 L/kg | hepatocyte CLint [30]: < 1 µL/min/1e6 cells | hepatocyte CLint [31]: 5 µL/min/1e6 cells | clearance [32]: 4 mL/min/kg | bioavailability [33]: 55% | Ki [34]: 2510 nM | Ki [35]: 100 nM
Compound: COc1nnc2ccc(N3CCC(c4ccc(OCCN5CCN(C)C(=O)[C@H]5C)cc4)CC3)nn12 [AZD-5153]
inhibition in vivo at 10 mg/kg (MV4-11): > 100% | Cp(f) (Mus musculus): <0.2 µM | Activity [15]: 8%
